Experimental data as given in ChEMBL document CHEMBL1130098, “4-Heterocyclylpiperidines as selective high-affinity ligands at the human dopamine D4 receptor” (J Med Chem, 1997).

Assays:
D(4) dopamine receptor = molecular target: T1, D(4) dopamine receptor (Homo sapiens, UniProt P21917)
T1 sequence (P21917 whole entry): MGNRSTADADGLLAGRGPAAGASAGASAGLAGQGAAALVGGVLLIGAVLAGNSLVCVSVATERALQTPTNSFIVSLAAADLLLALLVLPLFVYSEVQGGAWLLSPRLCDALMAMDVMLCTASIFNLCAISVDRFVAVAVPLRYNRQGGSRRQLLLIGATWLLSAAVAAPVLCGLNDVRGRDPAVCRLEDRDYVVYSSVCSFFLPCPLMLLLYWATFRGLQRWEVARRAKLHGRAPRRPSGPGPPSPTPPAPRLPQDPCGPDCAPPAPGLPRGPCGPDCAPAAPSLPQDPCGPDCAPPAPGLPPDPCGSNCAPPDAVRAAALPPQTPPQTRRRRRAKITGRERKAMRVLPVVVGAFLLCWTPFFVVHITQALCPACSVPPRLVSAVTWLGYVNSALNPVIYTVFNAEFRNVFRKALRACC
Description: Ability to displace [3H]spiperone from human dopamine receptor D4 (hD4) receptor stably expressed in HEK293 cells.

D(3) dopamine receptor = D(3) dopamine receptor (Homo sapiens, UniProt P35462)
D(3) dopamine receptor, sequence (P35462 whole entry): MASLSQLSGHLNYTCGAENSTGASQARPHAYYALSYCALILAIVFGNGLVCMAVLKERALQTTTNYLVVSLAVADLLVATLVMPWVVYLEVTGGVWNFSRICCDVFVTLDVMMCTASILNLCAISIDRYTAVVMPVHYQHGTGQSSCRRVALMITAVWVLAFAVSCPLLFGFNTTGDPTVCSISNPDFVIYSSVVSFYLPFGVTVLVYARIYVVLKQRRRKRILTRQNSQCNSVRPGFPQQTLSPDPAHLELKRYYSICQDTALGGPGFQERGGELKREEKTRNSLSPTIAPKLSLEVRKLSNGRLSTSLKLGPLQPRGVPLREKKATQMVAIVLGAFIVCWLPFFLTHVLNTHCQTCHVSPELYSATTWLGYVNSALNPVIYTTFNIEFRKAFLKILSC
Description: Ability to displace [3H]spiperone from human dopamine receptor D3 (hD3) receptor stably expressed in HEK293 cells.

Row | SMILES | Ki (D(4) dopamine receptor) [nM] | Ki (D(3) dopamine receptor) [nM]
1 | Clc1ccc(-c2cc(C3CCN(Cc4ccccc4)CC3)[nH]n2)cc1 | 9.1 | 160
2 | c1ccc(CCN2CCC(c3cc(-c4cccnc4)n[nH]3)CC2)cc1 | 23 | > 4200
3 | Clc1ccc(-c2cc(C3CCN(Cc4ccccc4)C3)[nH]n2)cc1 (configuration not stated) | 110 | 920
4 | Clc1ccc(-c2cc(C3CCCN(Cc4ccccc4)C3)[nH]n2)cc1 (configuration not stated) | 410 | 240
5 | Clc1ccc(-c2cc(C3CCN(CC4CCCCC4)CC3)[nH]n2)cc1 | 13 | 720
6 | Cc1cc(C2CCN(Cc3ccccc3)CC2)[nH]n1 | 470 | 3400
7 | CC1(c2cc(-c3ccc(Cl)cc3)[nH]n2)CCN(Cc2ccccc2)CC1 | 47 | 1300
8 | c1ccc(CCN2CCC(c3cc(-c4ccccn4)[nH]n3)CC2)cc1 | 22 | 3600
9 | Cc1c(C2CCN(Cc3ccccc3)CC2)n[nH]c1-c1ccc(Cl)cc1 | 1.6 | 430
10 | c1ccc(CN2CCC(c3cc(-c4ccccc4)[nH]n3)CC2)cc1 | 11 | 1400
11 | CC1(C(=O)/C=C(\O)c2ccc(Cl)cc2)CCN(Cc2ccccc2)CC1 | 350 | 510
12 | Nc1nc(-c2ccc(Cl)cc2)cc(C2CCN(Cc3ccccc3)CC2)n1 | 1 | 140
13 | Clc1ccc(CN2CCC(c3cc(-c4ccc(Cl)cc4)no3)CC2)cc1 | – | 80
14 | Clc1ccc(-c2cc(C3CCN(Cc4ccccc4Cl)CC3)[nH]n2)cc1 | 20 | 1300
15 | Clc1ccc(-c2cc(C3CCN(CCCc4ccccc4)CC3)[nH]n2)cc1 | 110 | 870
16 | c1ccc(CCN2CCC(c3cc(C4CCCCC4)n[nH]3)CC2)cc1 | 10 | 1200
17 | c1ccc(Cc2cc(C3CCN(Cc4ccccc4)CC3)[nH]n2)cc1 | 160 | 2100
18 | Cc1c(-c2ccccc2)n[nH]c1C1=CCN(CCc2ccccc2)CC1 | 3.1 | 830
19 | Clc1ccc(-c2cc(C3CCNCC3)[nH]n2)cc1 | > 3300 | > 4400
20 | CN1CCC(c2cc(-c3ccc(Cl)cc3)[nH]n2)CC1 | 1200 | > 1900
21 | c1ccc(CCN2CCC(c3cc(-c4ccncc4)n[nH]3)CC2)cc1 | 52 | > 4000
22 | c1ccc(CCN2CCC3(CCc4c(-c5ccccc5)n[nH]c43)CC2)cc1 | 930 | 600
23 | Cc1c(-c2ccc(Cl)cc2)nc(N)nc1C1CCN(CCc2ccccc2)CC1 | 4.7 | 1100
24 | c1ccc(CCN2CCN(c3cc(-c4ccccc4)[nH]n3)CC2)cc1 | 23 | 1200
25 | Clc1ccc(-c2cc(C3CCN(Cc4cccc(Cl)c4)CC3)[nH]n2)cc1 | 60 | 4300
26 | Clc1ccc(-c2cc(C3CCCCN3Cc3ccccc3)[nH]n2)cc1 (configuration not stated) | 4800 | 1800
27 | c1ccc(CCN2CCC(c3cc(-c4cccs4)[nH]n3)CC2)cc1 | 19 | 1100
28 | O=C(/C=C(\O)c1ccc(Cl)cc1)C1CCN(Cc2ccccc2)CC1 | 12 | 510
29 | CCc1c(C2CCN(Cc3ccccc3)CC2)n[nH]c1-c1ccc(Cl)cc1 | 1.5 | 46
